According to patent US8916599B2, “1H-benz imidazole-5-carboxamides as anti-inflammatory agents” (Orexo AB, priority 2008, dated 2014):

These compounds were tested against T1, recombinant human mPGES-1 (Homo sapiens, UniProt O14684) (assay: mPGES-1 inhibition test (microsomes, PGH2 substrate, HTRF detection of PGE2)). Settings: inhibition of mPGES-1 at 10 μM.
T1 construct: made in house; host or cells: Rosetta E. coli (microsomal/membrane fraction)
T1 sequence (O14684 1-152): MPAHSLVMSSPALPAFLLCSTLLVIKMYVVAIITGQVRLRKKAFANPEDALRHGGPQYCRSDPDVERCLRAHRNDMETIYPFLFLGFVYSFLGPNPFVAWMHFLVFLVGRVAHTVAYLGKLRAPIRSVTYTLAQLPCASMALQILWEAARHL
Type: biochemical
Protocol: Microsomes from Rosetta E. coli bacteria expressing recombinant human mPGES-1 is dissolved in 0.1 M KPi pH 7.4 buffer containing 2.5 mM GSH. 50 μl of the enzyme is subsequently dispensed in a 384-well plate. 0.5 μl of the inhibitor dissolved in DMSO at is thereafter added to each well and incubated for 25 minutes at room temperature. Subsequently, 2 μl of PGH2 dissolved in an appropriate solvent is added to each well and after one minute the acidified stop solution containing FeCl2 is added. 4 μl of the total volume is transferred to a separate plate and diluted 750-fold in two separate steps before HTRF detection of PGE2.
The HTRf detection is performed by the use of a commercially available kit from CisBio essentially according to the manufacturer's protocol. Briefly, 10 μl of the diluted sample is transferred to a white 384-well plate. 5 μl of d2 and 5 μl Eu3+-Cryptate labeled anti-PGE2 is added to each well containing samples by the use of a Multidrop. The plate is covered with a plastic self-adhesive film, centrifuged at 1200 rpm for 1 minute and subsequently stored at +4° C. over night.
After over night incubation the fluorescence is measured by the use of an appropriate microplate reader. The fluorescence of europium cryptate, and d2 are measured using the following excitation and emission wavelength, europium cryptate: λmax^ex=307 nm, λmax^em=620 nm and d2: λmax^ex=620 nm, λmax^em=665 nm), respectively. The extent of the specific FRET is measured as a ratio of the emission intensity at 665 nm vs. that at 620 nm. A standard curve using synthetic PGE2 is used to quantify the amount of PGE2 in unknown samples.

Row | Structure (SMILES) | inhibition at 10 µM [%]
1 | O=C(NC1CCCCC1)c1ccc2nc(Nc3c(Cl)cccc3Cl)[nH]c2c1 [Example 137, 2-(2,6-Dichloro-phenylamino)-3H-benzimidazole-5-carboxylic acid cyclohexylamide] | 100
2 | Cc1nc(NC(=O)c2cc3nc(Nc4c(Cl)cccc4Cl)[nH]c3cc2F)cc2c1CCCC2 [Example 138, 2-(2,6-Dichloro-phenylamino)-6-fluoro-1H-benzimidazole-5-carboxylic acid (1-methyl-5,6,7,8-tetrahydro-isoquinolin-3-yl)-amide] | 100
3 | Cc1nc(NC(=O)c2ccc3c(c2)nc(Nc2c(Cl)cccc2Cl)n3C)cc2c1CCCC2 [Example 139, 2-(2,6-Dichloro-phenylamino)-1-methyl-1H-benzimidazole-5-carboxylic acid (1-methyl-5,6,7,8-tetrahydro-isoquinolin-3-yl)-amide] | 98
4 | CC(C)(C)CNC(=O)c1ccc2[nH]c(Nc3c(Cl)cccc3Cl)nc2c1 [Example 140, 2-(2,6-Dichloro-phenylamino)-1H-benzimidazole-5-carboxylic acid (2,2-dimethyl-propyl)-amide] | 80
5 | O=C(Nc1cc(Cl)ccn1)c1cc2[nH]c(Nc3c(Cl)cccc3Cl)nc2cc1F [Example 142, 2-(2,6-Dichloro-phenylamino)-6-fluoro-3H-benzimidazole-5-carboxylic acid (4-chloro-pyridin-2-yl)-amide] | 100
6 | O=C(Nc1cccc(Cl)c1)c1cc2[nH]c(Nc3c(Cl)cccc3Cl)nc2cc1F [Example 143, 2-(2,6-Dichloro-phenylamino)-6-fluoro-3H-benzimidazole-5-carboxylic acid (3-chloro-phenyl)-amide] | 100
7 | O=C(Nc1ccc(Br)cc1)c1cc2[nH]c(Nc3c(Cl)cccc3Cl)nc2cc1F [Example 144, 2-(2,6-Dichloro-phenylamino)-6-fluoro-3H-benzimidazole-5-carboxylic acid (4-bromo-phenyl)-amide] | 97
8 | Cc1cc2[nH]c(Nc3c(Cl)cccc3Cl)nc2cc1C(=O)Nc1ccc(Cl)c(F)c1 [Example 145, 2-(2,6-Dichloro-phenylamino)-6-methyl-1H-benzimidazole-5-carboxylic acid (4-chloro-3-fluorophenyl)-amide] | 100
9 | O=C(NC1CCc2ccccc2C1)c1ccc2nc(Nc3c(Cl)cccc3Cl)[nH]c2c1 (centres unmarked) [Example 146, 2-(2,6-Dichloro-phenylamino)-3H-benzimidazole-5-carboxylic acid (1,2,3,4-tetrahydro-naphthalen-2-yl)-amide] | 97
10 | O=C(NC1CCC(F)(F)CC1)c1ccc2nc(Nc3c(Cl)cccc3Cl)[nH]c2c1 [Example 147, 2-(2,6-Dichloro-phenylamino)-3H-benzimidazole-5-carboxylic acid (4,4-difluoro-cyclohexyl)-amide] | 94
11 | O=C(NC1CCC(F)(F)CC1)c1cc2[nH]c(Nc3c(Cl)cccc3Cl)nc2cc1F [Example 149, 2-(2,6-Dichloro-phenylamino)-6-fluoro-3H-benzimidazole-5-carboxylic acid (4,4-difluoro-cyclohexyl)-amide] | 100
12 | O=C(NC1CCc2ccccc2C1)c1cc2[nH]c(Nc3c(Cl)cccc3Cl)nc2cc1F (centres unmarked) [Example 150, 2-(2,6-Dichloro-phenylamino)-6-fluoro-3H-benzimidazole-5-carboxylic acid (1,2,3,4-tetrahydro-naphthalen-2-yl)-amide] | 100
13 | O=C(NC1COc2ccccc2C1)c1cc2[nH]c(Nc3c(Cl)cccc3Cl)nc2cc1F (centres unmarked) [Example 152, 2-(2,6-Dichloro-phenylamino)-6-fluoro-1H-benzimidazole-5-carboxylic acid chroman-3-ylamide] | 95
14 | O=C(NC1COc2ccccc2C1)c1ccc2[nH]c(Nc3c(Cl)cccc3Cl)nc2c1 (centres unmarked) [Example 153, 2-(2,6-Dichloro-phenylamino)-1H-benzimidazole-5-carboxylic acid chroman-3-ylamide] | 98
15 | O=C(N[C@H]1CC[C@H](C(F)(F)F)CC1)c1cc2nc(Nc3c(Cl)cccc3Cl)[nH]c2cc1F [Example 155, 2-(2,6-Dichloro-phenylamino)-6-fluoro-1H-benzimidazole-5-carboxylic acid (trans-4-trifluoromethyl-cyclohexyl)-amide] | 100
16 | Cn1c(Nc2c(Cl)cccc2Cl)nc2cc(C(=O)NC3CCC(F)(F)CC3)c(F)cc21 [Example 156, 2-(2,6-Dichloro-phenylamino)-6-fluoro-1-methyl-1H-benzimidazole-5-carboxylic acid (4,4-difluoro-cyclohexyl)-amide] | 100
17 | Cn1c(Nc2c(Cl)cccc2Cl)nc2cc(C(=O)NC3CCC(C)(C)CC3)c(F)cc21 [Example 157, 2-(2,6-Dichloro-phenylamino)-6-fluoro-1-methyl-1H-benzimidazole-5-carboxylic acid (4,4-dimethyl-cyclohexyl)-amide] | 100
18 | Cn1c(Nc2c(Cl)cccc2Cl)nc2cc(C(=O)N[C@H]3CC[C@H](C(F)(F)F)CC3)c(F)cc21 [Example 158, 2-(2,6-Dichloro-phenylamino)-6-fluoro-1-methyl-1H-benzimidazole-5-carboxylic acid (trans-4-trifluoromethyl-cyclohexyl)-amide] | 100
19 | Cn1c(Nc2c(Cl)cccc2Cl)nc2cc(C(=O)NC3CCCCC3)c(F)cc21 [Example 159, 2-(2,6-Dichloro-phenylamino)-6-fluoro-1-methyl-1H-benzimidazole-5-carboxylic acid cyclohexylamide] | 98
20 | Cn1c(Nc2c(Cl)cccc2Cl)nc2cc(C(=O)NC3COc4ccccc4C3)c(F)cc21 (centres unmarked) [Example 160, 2-(2,6-Dichloro-phenylamino)-6-fluoro-1-methyl-1H-benzimidazole-5-carboxylic acid chroman-3-ylamide] | 98
21 | O=C(N[C@H]1CC[C@H](C(F)(F)F)CC1)c1ccc2[nH]c(Nc3c(Cl)cccc3Cl)nc2c1 [Example 161, 2-(2,6-Dichloro-phenylamino)-1H-benzimidazole-5-carboxylic acid (trans-4-trifluoromethyl-cyclohexyl)-amide] | 98
22 | Cn1c(Nc2c(Cl)cccc2Cl)nc2cc(C(=O)NC3CCc4ccccc4C3)c(F)cc21 (centres unmarked) [Example 162, 2-(2,6-Dichloro-phenylamino)-6-fluoro-1-methyl-1H-benzimidazole-5-carboxylic acid (1,2,3,4-tetrahydro-naphthalen-2-yl)-amide] | 100
23 | Cn1c(Nc2c(Cl)cccc2Cl)nc2cc(C(=O)NC3CC4CCCCC4C3)c(F)cc21 (centres unmarked) [Example 163, 2-(2,6-Dichloro-phenylamino)-6-fluoro-1-methyl-1H-benzimidazole-5-carboxylic acid (octahydro-inden-2-yl)-amide] | 100
24 | Cn1c(Nc2c(Cl)cccc2Cl)nc2cc(C(=O)NC3(C)CCCCC3)c(F)cc21 [Example 164, 2-(2,6-Dichloro-phenylamino)-6-fluoro-1-methyl-1H-benzimidazole-5-carboxylic acid (1-methyl-cyclohexyl)-amide] | 100
25 | Cn1c(Nc2c(Cl)cccc2Cl)nc2cc(C(=O)NC34CC5CC(CC(C5)C3)C4)c(F)cc21 [Example 165, 2-(2,6-Dichloro-phenylamino)-6-fluoro-1-methyl-1H-benzimidazole-5-carboxylic acid adamantan-1-ylamide] | 98
26 | CCCCCCCCNC(=O)c1cc2nc(Nc3c(Cl)cccc3Cl)n(C)c2cc1F [Example 166, 2-(2,6-Dichloro-phenylamino)-6-fluoro-1-methyl-1H-benzimidazole-5-carboxylic acid octylamide] | 100
27 | Cn1c(Nc2c(Cl)cccc2Cl)nc2cc(C(=O)Nc3ccc(Br)cc3)c(F)cc21 [Example 167, 2-(2,6-Dichloro-phenylamino)-6-fluoro-1-methyl-1H-benzimidazole-5-carboxylic acid (4-bromo-phenyl)-amide] | 93
28 | O=C(N[C@H]1CC[C@@H](C(F)(F)F)CC1)c1ccc2[nH]c(Nc3c(Cl)cccc3Cl)nc2c1 [Example 168, 2-(2,6-Dichloro-phenylamino)-1H-benzimidazole-5-carboxylic acid (cis-4-trifluoromethyl-cyclohexyl)-amide] | 100
29 | O=C(N[C@H]1CC[C@@H](C(F)(F)F)CC1)c1cc2nc(Nc3c(Cl)cccc3Cl)[nH]c2cc1F [Example 169, 2-(2,6-Dichloro-phenylamino)-6-fluoro-1H-benzimidazole-5-carboxylic acid (cis-4-trifluoromethyl-cyclohexyl)-amide] | 94
